Results from the CheMixHub viscosity set.
“And” between values parts separate entries of the source, which are not always exact repeats. Equal values may be shown once. ± gives the uncertainty stated by the source.

Assay: xn = mol fraction of the nth substance listed
Conditions: 101.3 kPa

O=[N+]([O-])c1ccccc1 + CCCCC
Conditions | viscosity
293.15 K, x1 = 0.0998 | 0.272 ± 0.002 mPa·s
293.15 K, x1 = 0.1994 | 0.336 ± 0.003 mPa·s
293.15 K, x1 = 0.5984 | 0.79 ± 0.005 mPa·s
293.15 K, x1 = 0.6995 | 0.972 ± 0.006 mPa·s
293.15 K, x1 = 0.7997 | 1.221 ± 0.007 mPa·s
293.15 K, x1 = 0.9 | 1.549 ± 0.009 mPa·s
297.15 K, x1 = 0.0998 | 0.262 ± 0.002 mPa·s
297.15 K, x1 = 0.1994 | 0.322 ± 0.003 mPa·s
297.15 K, x1 = 0.299 | 0.42 ± 0.003 mPa·s
297.15 K, x1 = 0.3491 | 0.52 ± 0.004 mPa·s
297.15 K, x1 = 0.399 | 0.596 ± 0.004 mPa·s
297.15 K, x1 = 0.4589 | 0.603 ± 0.004 mPa·s
297.15 K, x1 = 0.494 | 0.623 ± 0.004 mPa·s
297.15 K, x1 = 0.5984 | 0.748 ± 0.005 mPa·s
297.15 K, x1 = 0.6995 | 0.921 ± 0.006 mPa·s
297.15 K, x1 = 0.7997 | 1.15 ± 0.007 mPa·s
297.15 K, x1 = 0.9 | 1.452 ± 0.009 mPa·s
297.16 K, x1 = 0.383 | 0.62 ± 0.15 mPa·s
297.17 K, x1 = 0.299 | 0.42 ± 0.003 mPa·s
297.17 K, x1 = 0.3491 | 0.517 ± 0.004 mPa·s
297.17 K, x1 = 0.383 | 0.619 ± 0.16 mPa·s and 0.617 ± 0.15 mPa·s and 0.61 ± 0.15 mPa·s
297.17 K, x1 = 0.3832 | 0.614 ± 0.004 mPa·s
297.17 K, x1 = 0.399 | 0.591 ± 0.004 mPa·s
297.17 K, x1 = 0.4589 | 0.602 ± 0.004 mPa·s
297.17 K, x1 = 0.494 | 0.623 ± 0.004 mPa·s
297.18 K, x1 = 0.383 | 0.604 ± 0.12 mPa·s
297.2 K, x1 = 0.383 | 0.593 ± 0.1 mPa·s
297.23 K, x1 = 0.383 | 0.583 ± 0.058 mPa·s
297.29 K, x1 = 0.383 | 0.565 ± 0.046 mPa·s
297.34 K, x1 = 0.383 | 0.558 ± 0.025 mPa·s
297.44 K, x1 = 0.383 | 0.546 ± 0.017 mPa·s
297.6 K, x1 = 0.383 | 0.535 ± 0.01 mPa·s
297.65 K, x1 = 0.0998 | 0.261 ± 0.002 mPa·s
297.65 K, x1 = 0.1994 | 0.321 ± 0.003 mPa·s
297.65 K, x1 = 0.299 | 0.415 ± 0.003 mPa·s
297.65 K, x1 = 0.3491 | 0.488 ± 0.004 mPa·s
297.65 K, x1 = 0.3832 | 0.532 ± 0.004 mPa·s
297.65 K, x1 = 0.399 | 0.55 ± 0.004 mPa·s
297.65 K, x1 = 0.4589 | 0.592 ± 0.004 mPa·s
297.65 K, x1 = 0.494 | 0.616 ± 0.004 mPa·s
297.65 K, x1 = 0.5984 | 0.743 ± 0.005 mPa·s
297.65 K, x1 = 0.6995 | 0.915 ± 0.006 mPa·s
297.65 K, x1 = 0.7997 | 1.142 ± 0.007 mPa·s
297.65 K, x1 = 0.9 | 1.441 ± 0.009 mPa·s
298 K, x1 = 0.383 | 0.52 ± 0.006 mPa·s
298.15 K, x1 = 0.0998 | 0.26 ± 0.002 mPa·s
298.15 K, x1 = 0.1994 | 0.319 ± 0.003 mPa·s
298.15 K, x1 = 0.299 | 0.411 ± 0.003 mPa·s
298.15 K, x1 = 0.3491 | 0.476 ± 0.003 mPa·s
298.15 K, x1 = 0.3832 | 0.515 ± 0.004 mPa·s
298.15 K, x1 = 0.399 | 0.536 ± 0.004 mPa·s
298.15 K, x1 = 0.4589 | 0.584 ± 0.004 mPa·s
298.15 K, x1 = 0.494 | 0.61 ± 0.004 mPa·s
298.15 K, x1 = 0.5984 | 0.738 ± 0.005 mPa·s
298.15 K, x1 = 0.6995 | 0.909 ± 0.006 mPa·s
298.15 K, x1 = 0.7997 | 1.134 ± 0.007 mPa·s
298.15 K, x1 = 0.9 | 1.43 ± 0.009 mPa·s
298.76 K, x1 = 0.383 | 0.504 ± 0.005 mPa·s
299.15 K, x1 = 0.0998 | 0.257 ± 0.002 mPa·s
299.15 K, x1 = 0.1994 | 0.316 ± 0.003 mPa·s
299.15 K, x1 = 0.299 | 0.404 ± 0.003 mPa·s
299.15 K, x1 = 0.3491 | 0.461 ± 0.003 mPa·s
299.15 K, x1 = 0.3832 | 0.498 ± 0.004 mPa·s
299.15 K, x1 = 0.399 | 0.518 ± 0.004 mPa·s
299.15 K, x1 = 0.4589 | 0.571 ± 0.004 mPa·s
299.15 K, x1 = 0.494 | 0.6 ± 0.004 mPa·s
299.15 K, x1 = 0.5984 | 0.729 ± 0.005 mPa·s
299.15 K, x1 = 0.6995 | 0.897 ± 0.006 mPa·s
299.15 K, x1 = 0.7997 | 1.118 ± 0.007 mPa·s
299.15 K, x1 = 0.9 | 1.406 ± 0.008 mPa·s
299.88 K, x1 = 0.383 | 0.489 ± 0.004 mPa·s
302.28 K, x1 = 0.383 | 0.466 ± 0.004 mPa·s
305.15 K, x1 = 0.0998 | 0.245 ± 0.002 mPa·s
305.15 K, x1 = 0.1994 | 0.298 ± 0.002 mPa·s
305.15 K, x1 = 0.299 | 0.373 ± 0.003 mPa·s
305.15 K, x1 = 0.3491 | 0.417 ± 0.003 mPa·s
305.15 K, x1 = 0.3832 | 0.447 ± 0.003 mPa·s
305.15 K, x1 = 0.399 | 0.466 ± 0.003 mPa·s
305.15 K, x1 = 0.4589 | 0.52 ± 0.004 mPa·s
305.15 K, x1 = 0.494 | 0.551 ± 0.004 mPa·s
305.15 K, x1 = 0.5984 | 0.677 ± 0.005 mPa·s
305.15 K, x1 = 0.6995 | 0.831 ± 0.005 mPa·s
305.15 K, x1 = 0.7997 | 1.031 ± 0.006 mPa·s
305.15 K, x1 = 0.9 | 1.284 ± 0.008 mPa·s
305.99 K, x1 = 0.383 | 0.442 ± 0.003 mPa·s
313.15 K, x1 = 0.0998 | 0.229 ± 0.002 mPa·s
313.15 K, x1 = 0.1994 | 0.277 ± 0.002 mPa·s
313.15 K, x1 = 0.299 | 0.342 ± 0.003 mPa·s
313.15 K, x1 = 0.3491 | 0.38 ± 0.003 mPa·s
313.15 K, x1 = 0.3832 | 0.403 ± 0.003 mPa·s
313.15 K, x1 = 0.399 | 0.424 ± 0.003 mPa·s
313.15 K, x1 = 0.4589 | 0.471 ± 0.003 mPa·s
313.15 K, x1 = 0.494 | 0.503 ± 0.004 mPa·s
313.15 K, x1 = 0.5984 | 0.616 ± 0.004 mPa·s
313.15 K, x1 = 0.6995 | 0.753 ± 0.005 mPa·s
313.15 K, x1 = 0.7997 | 0.929 ± 0.006 mPa·s
313.15 K, x1 = 0.9 | 1.143 ± 0.007 mPa·s
